Data taken from ChEMBL document CHEMBL1157218, “Cycloviolacin H4, a hydrophobic cyclotide from Viola hederaceae” (J Nat Prod, 2006).
Bridge positions count the residues as written; N and C are the ends. Peptide text beside a SMILES is read from it.

Experiments:
[1] = Toxicity against human type A red blood cells assessed as hemolytic activity after 1hr; assay type: cell-based, Erythrocyte; conditions: read-out: HD50
[2] = Toxicity against human type A red blood cells assessed as hemolytic activity at 80 uM after 1 ht; assay type: cell-based, Erythrocyte; conditions: read-out: Activity

**Q.** For `CC(C)C[C@@H]1NC(=O)CNC(=O)[C@H](CC(N)=O)NC(=O)[C@H](CCCNC(=N)N)NC(=O)[C@H]([C@@H](C)O)NC(=O)[C@@H]2CSSC[C@@H]3NC(=O)[C@H]([C@@H](C)O)NC(=O)CNC(=O)CNC(=O)[C@H](C(C)C)NC(=O)[C@@H]4CSSC[C@H](NC(=O)[C@H]([C@@H](C)O)NC(=O)[C@H](CSSC[C@H](NC(=O)[C@H](C(C)C)NC(=O)[C@@H]5CCCN5C1=O)C(=O)NCC(=O)N[C@@H](CCC(=O)O)C(=O)N[C@@H]([C@@H](C)O)C(=O)N4)NC(=O)CNC(=O)[C@@H]1CCCN1C(=O)[C@H]([C@@H](C)O)NC(=O)[C@H](CC(N)=O)NC3=O)C(=O)N[C@@H](CO)C(=O)N[C@@H](Cc1c[nH]c3ccccc13)C(=O)N1CCC[C@H]1C(=O)N[C@@H](C(C)C)C(=O)N2` [KALATA B1], which HC50 at 1 h [1] is on record?
**A.** 12.7 µM

**Q.** With `CC[C@H](C)[C@@H]1NC(=O)[C@H]([C@@H](C)O)NC(=O)CNC(=O)CNC(=O)[C@H](CC(N)=O)NC(=O)[C@H]([C@@H](C)O)NC(=O)CNC(=O)[C@H](Cc2ccc(O)cc2)NC(=O)[C@@H]2CSSC[C@@H]3NC(=O)[C@H]([C@@H](C)O)NC(=O)CNC(=O)[C@H](CC(C)C)NC(=O)[C@H](Cc4ccccc4)NC(=O)[C@@H]4CSSC[C@H](NC(=O)[C@H](CO)NC(=O)[C@H](CSSC[C@H](NC(=O)[C@H](CC(=O)O)NC(=O)[C@H](Cc5ccccc5)NC1=O)C(=O)NCC(=O)N[C@@H](CCC(=O)O)C(=O)N[C@@H](CO)C(=O)N4)NC(=O)CNC(=O)[C@H](CCCCN)NC(=O)[C@H]([C@@H](C)O)NC(=O)[C@H](Cc1ccc(O)cc1)NC3=O)C(=O)NCC(=O)N[C@@H](CCC(=O)O)C(=O)N[C@@H](Cc1c[nH]c3ccccc13)C(=O)N[C@@H](CCCCN)C(=O)N[C@@H](CC(C)C)C(=O)N2` [TRICYCLON A] (cyclo(CFLGTCYTKGCSCGEWKLCYGTNGGTIFDCGES); disulfide 1-13, 6-19, 11-30) as the compound, how does the hemolysis at 1 h, 80 µM [2] read?
**A.** 2%

**Q.** For `CC[C@H](C)[C@@H]1NC(=O)CNC(=O)[C@H](CC(N)=O)NC(=O)[C@H](Cc2ccc(O)cc2)NC(=O)[C@@H]2CSSC[C@@H]3NC(=O)[C@@H]4CCCN4C(=O)[C@H]([C@@H](C)CC)NC(=O)[C@H](Cc4c[nH]c5ccccc45)NC(=O)[C@H](C(C)C)NC(=O)[C@@H]4CSSC[C@H](NC(=O)[C@H](CO)NC(=O)[C@H](CSSC[C@H](NC(=O)[C@@H]5CCCN5C1=O)C(=O)N[C@@H](C)C(=O)N[C@@H](CCC(=O)O)C(=O)N[C@@H](CO)C(=O)N4)NC(=O)CNC(=O)[C@H](CC(C)C)NC(=O)[C@H](CC(C)C)NC(=O)[C@H](C)NC(=O)[C@H]([C@@H](C)O)NC(=O)[C@H](C(C)C)NC(=O)[C@H]([C@@H](C)O)NC3=O)C(=O)N[C@@H](CO)C(=O)N[C@@H](CC(N)=O)C(=O)N[C@@H](CC(N)=O)C(=O)N[C@@H](C(C)C)C(=O)N2` [cycloviolacin H4] (cyclo(AESCVWIPCTVTALLGCSCSNNVCYNGIPC); disulfide 4-19, 9-24, 17-30), which HC50 at 1 h [1] is on record?
**A.** 5.5 µM
